The values that follow are results of earlier work, collected in patent US12584131B2, “Methods of gene therapy” (OREGON HEALTH & SCIENCE UNIVERSITY, priority 2018, dated 2026).

This data set relates to CYP enzymes.
The mark [1] stands for this setting: CYP enzymes that activate the prodrug (protoxin).

Like-named read-outs stand apart in the source and are kept apart here.

On to `CC(=O)Nc1ccc(O)cc1` [Acetaminophen], for which the “Metabolizing CYP” value was “CYP2E1, CYP1A2, CYP3A4, CYP2D6”. Moreover, the “Metabolizing CYP” value (listed as acetaminophen) was “CYP1A2, CYP2E1, and CYP3A4”.
For the molecule `O=P1(N(CCCl)CCCl)NCCCO1` (stereo not drawn) [Cyclophosphamide], the “Metabolizing CYP” value is reported as “CYP2B6, CYP2C9, CYP3A4”.
As to `CN(C)/N=N/c1[nH]cnc1C(N)=O` [Dascarbazine], the “Metabolizing CYP” value under setting [1] was “CYP1A1, CYP1A2, CYP2E1”.
In the case of `CC(=O)N1CCN(c2ccc(OCC3COC(Cn4ccnc4)(c4ccc(Cl)cc4Cl)O3)cc2)CC1` (stereo not drawn) [Ketoconazole], the “Metabolizing CYP” value under setting [1] is on record as “CYP3A4”.
Take `C/C=C1\C[C@@H](C)[C@@](C)(O)C(=O)OC/C2=C/CN(C)CC[C@@H](OC1=O)C2=O` [Senkirkin]: the “Metabolizing CYP” value under setting [1] was “CYP3A4”.
For `Nc1c2c(nc3ccccc13)CCCC2` [Tacrine], the “Metabolizing CYP” value under setting [1] is on record as “CYP1A2”.
For the molecule `O=c1[nH]c(=O)n(C2CCCO2)cc1F` (stereo not drawn) [Tegafur], the “Metabolizing CYP” value under setting [1] was “CYP2A6, CYP1A2, CYP2C8”.
With `COc1cccc(C2(O)CCCCC2CN(C)C)c1` (stereo not drawn) [Tramadol], the “Metabolizing CYP” value under setting [1] is recorded as “CYP2D6”.
